{
  "source": "patent US20130236960A1",
  "about": "“VITRIFICATED STORAGE SOLUTION FOR CELLS” (priority 2010, published 2013)",
  "key": {"[1]": {"assay": "Vitrification ability of cell membrane permeable substances by rapid cooling with liquid nitrogen", "format": "physicochemical", "details": "30% solution in PBS", "experimental": "The 10 to 50% solutions of 6 dials (EG, PG, BG, IPG, DPG and PEG) and of DMSO were prepared and confirmed to be vitrified by rapid cooling with liquid nitrogen. Specifically, respective cell membrane permeable substances are dissolved in PBS to concentrations of 10, 20, 30, 40 and 50%, and the solution was stained with a small amount of phenol red in order to readily judge the vitrification. The solution thus prepared was divided into 200 μl portions in cryo-tubes, which were dipped into liquid nitrogen for rapid cooling. The tubes were dipped into liquid nitrogen for 5 minutes or more to stabilize the temperature before observation of each tube."}, "[2]": {"test_system": "Common marmoset (CM) ES cells", "assay": "Cytotoxicity and influence on differentiation with common marmoset ES cells", "format": "cell-based", "details": "2% in culture medium for CMES; for nature of the colony morphology: after 3 days", "experimental": "Specifically, the experiment was conducted as follow • CMES cells were cultured with reference to “Establishment of novel embryonic stem cell lines derived from the common marmoset” ([…], Izawa […], Asano 5, Nakatsuji N, Okano H, Tani K. Stem Cells. 2005 October; 23(9):1304-13). • CMES cells were seeded in a φ35 mm dish to which feeder cells had preliminarily been adhered, and the cell membrane permeable substance was added in an amount corresponding to 2% of the amount of the culture medium. • After 3 days, microscopic observation was conducted, and the presence of the growth suppression and differentiation promotion on CMES cells was examined."}, "[3]": {"test_system": "Mouse ES cell line strain D3", "assay": "Vitrification preservation efficiency with mouse ES cells (trypan blue survival rate, colony observation)", "format": "cell-based", "details": "for colonies after vitrification, melting and culture: cell membrane permeable substance used alone, 40%, 60 seconds, 3 days culture", "experimental": "The mouse ES cells after vitrification and melting were seeded, and the state of the cells after culture was confirmed by microscopic observation.\n(§1) Specifically, the experiment was conducted as follows: • Mouse ES cells were cultured according to the ordinary method. • The mouse ES cells recovered were counted, divided into 10^6 cell portions in 1.5 ml tubes, and centrifuged at 1500 rpm for 5 minutes. • The supernatant was removed, and the cells were suspended in 200 μl of the vitrification medium. • After suspension, DAP213 and the test fluid were dipped into liquid nitrogen after 15 seconds and 60 seconds, respectively, for vitrification. • The tubes were left standing for 5 minutes or more to stabilize the temperature. • The tubes were taken out liquid nitrogen, and the cells were diluted with 1800 μl of the culture medium preliminarily heated to 37° C. and rapidly suspended for melting. • A portion of the suspension was sampled for counting the cells. • On counting the cells, the life or death of cells was judged from the index of the selective excretive ability of the viable cells to trypan blue and the survival rate was calculated. • The remaining cells were seeded in a 24 well plate, and the state after 3 days was confirmed by microscopic observation.\nThe 40% solution of each cell membrane permeable substance in PBS was prepared, and the mouse ES cells was suspended in the solution, left standing for 60 seconds, and dipped into liquid nitrogen for vitrification.\nas §1, with “Specifically,” for “Specifically, the”, “out from” for “out”\nas §1, with “Specifically,” for “Specifically, the”, “out from” for “out”, “calculated.” for “calculated. • The remaining cells were seeded in a 24 well plate, and the state after 3 days was confirmed by microscopic observation.”"}, "[4]": {"assay": "Examination of ice crystal growth inhibitor: time for melting the vitrified storage solution", "format": "physicochemical", "details": "for time required for the once vitrificated storage solution to be melted completely: 40% EG storage solution with the additive", "experimental": "Examination of the ice crystal growth inhibitor was conducted by comparing the times required for melting the crystallized vitrificated storage solutions. That is, when crystal lumps having the same volume are melted, a polycrystalline substance having a larger total surface area is melted more quickly. It is believed that when the growth of ice crystals is suppressed on the phase transition to crystalline state, the melting time is shortened probably due to the formation of many minute ice crystals.\nSpecifically, experiment was conducted according to the following procedure. • The test fluid prepared was dispensed in a portion of 200 μl into 1.5 ml microtubes. • Dewar vessel was charged with liquid nitrogen, and a timer was provided. • The microtube was picked up with tweezers and dipped into liquid nitrogen for 40 seconds for vitrification. • The microtube was pulled out from liquid nitrogen, and the time required for complete disappearance of ice within the tube was measured."}, "[5]": {"assay": "Examination of vitrification promoting substances in 30% DMSO/PBS", "format": "physicochemical", "details": "0.3 M added to 30% DMSO solution", "experimental": "Specifically, the experiment was conducted as follows: • As the vitrification promoting substance, the following saccharides were examined: glucose, sucrose, maltose, fructose, trehalose, raffinose, erythritol, xylitol, sorbitol and mannitol. • The vitrification promoting substance was dissolved in 30% DMSO/PBS to a concentration of 0.3 M and 0.6 M respectively. • The solution thus prepared was divided into 200 μl portions in cryo-tubes, which were dipped into liquid nitrogen for rapid cooling. The tubes were dipped into liquid nitrogen for 5 minutes or more to stabilize the temperature before observation of each tube."}, "[6]": {"assay": "Solubility at low temperature", "format": "physicochemical"}, "[7]": {"test_system": "Common marmoset ES cell line strain CMES40", "assay": "Preservation effect on common marmoset ES cells (take rate, ALP-positive colonies)", "format": "cell-based", "details": "cell membrane permeable substance used alone, with trehalose, 60 seconds", "description": "According to the present invention, it is possible to provide a vitrification medium which is excellent in operability and safety and can efficiently preserve cells, particularly primate ES/iPS cells. Specifically, the take rate of ca. 60% could be obtained even if simian ES cells were suspended in the vitrification medium of the present invention and after 60 seconds the suspension was poured into liquid nitrogen (as described hereinafter, the “take rate” in place of the “survival rate” is used with respect to the preservation efficiency of simian ES cells. In this place, the take rate is calculated on the basis of the number of undifferentiated colonies having taken after three or four days from the seeding of the cells without vitrification as 100). Hitherto, when DAP213, which has been most commonly used, was used, it was important to pour the cell suspension into liquid nitrogen within 15 seconds after suspending the cells in DAP213 for avoiding the lowering of the survival rate. Due to this fact, skillfulness was required for operations and wide dispersion in results was apprehended to occur depending on the technical skills of operators, so that a stable result was not always obtained. […]"}},
  "note": "“Also recorded” adds a separate entry of the source.",
  "data": [
    {"compound": "CC(O)COC(C)CO", "note": "(centres unmarked) [DPG, Diprepylene glycol]", "values": [
      {"measurement": "vitrification by rapid cooling with liquid nitrogen", "setting": "[1]", "value": "vitrified"}
    ]},
    {"compound": "CC(O)CO", "note": "(centres unmarked) [PG, Propylene glycol]", "values": [
      {"measurement": "vitrification by rapid cooling with liquid nitrogen", "setting": "[1]", "value": "vitrified"},
      {"measurement": "differentiation promoting effect on the CMES cells", "setting": "[2]", "value": "no differentiation promoting effect"},
      {"measurement": "nature of the colony morphology", "setting": "[2]", "value": "good"},
      {"measurement": "colonies after vitrification, melting and culture", "setting": "[3]", "value": "secondly"}
    ]},
    {"compound": "OCCCCO", "note": "[BG, Butylene glycol]", "values": [
      {"measurement": "vitrification by rapid cooling with liquid nitrogen", "setting": "[1]", "value": "vitrified"}
    ]},
    {"compound": "sericin", "values": [
      {"measurement": "time required for the once vitrificated storage solution to be melted completely", "setting": "[4]", "value": "shortened"},
      {"measurement": "growth of ice crystals", "setting": "[4]; concluded from melting time", "value": "suppresses the growth of ice crystals"}
    ]},
    {"compound": "OC[C@H]1O[C@H](OC[C@H]2O[C@H](O[C@]3(CO)O[C@H](CO)[C@@H](O)[C@@H]3O)[C@H](O)[C@@H](O)[C@@H]2O)[C@H](O)[C@@H](O)[C@H]1O", "note": "[raffinose, D-(+)-Raffinose-pentahydrate]", "values": [
      {"measurement": "vitrification by rapid cooling in liquid nitrogen", "setting": "[5]", "value": "vitrified"},
      {"measurement": "solubility", "setting": "[6]", "value": "low solubility"}
    ]},
    {"compound": "OC[C@H]1O[C@@](CO)(O[C@H]2O[C@H](CO)[C@@H](O)[C@H](O)[C@H]2O)[C@@H](O)[C@@H]1O", "note": "[sucrose, Sucrose, reference compound]", "values": [
      {"measurement": "time required for the once vitrificated storage solution to be melted completely", "setting": "[4]", "value": "no reduction of melting time"}
    ]},
    {"compound": "C[S+](C)[O-]", "note": "[DMSO, Dimethyl sulfoxide]", "values": [
      {"measurement": "vitrification by rapid cooling with liquid nitrogen", "setting": "[1]", "value": "no vitrification occurs"},
      {"measurement": "differentiation promoting effect on the CMES cells", "setting": "[2]", "value": "no differentiation promoting effect"},
      {"measurement": "nature of the colony morphology", "setting": "[2]", "value": "good"},
      {"measurement": "colonies after vitrification, melting and culture", "setting": "[3]", "value": "least number of colonies"}
    ]},
    {"compound": "CC(C)(O)CCO", "note": "[IPG, Isoprene glycol]", "values": [
      {"measurement": "vitrification by rapid cooling with liquid nitrogen", "setting": "[1]", "value": "vitrified"}
    ]},
    {"compound": "OCCO", "note": "[EG, Ethylene glycol]", "values": [
      {"measurement": "differentiation promoting effect on the CMES cells", "setting": "[2]", "value": "no differentiation promoting effect"},
      {"measurement": "nature of the colony morphology", "setting": "[2]", "value": "good"},
      {"measurement": "survival rate after melting", "setting": "[3]; 40% solution in PBS, left standing for 60 seconds before vitrification", "value": "substantially lowered as compared with DMSO+PG; also recorded: second highest"},
      {"measurement": "colonies after vitrification, melting and culture", "setting": "[3]", "value": "biggest colony"},
      {"measurement": "preservation efficiency", "setting": "[7]", "value": "high preservation efficiency"}
    ]},
    {"compound": "Bovine serum albumin [reference compound]", "values": [
      {"measurement": "time required for the once vitrificated storage solution to be melted completely", "setting": "[4]", "value": "an effect similar to that of sericin, its activity remained unsatisfactory"}
    ]},
    {"compound": "CC(N)=O", "note": "[acetamide, Acetamide]", "values": [
      {"measurement": "survival rate, effect of acetamide", "setting": "[3]; DAP213 versus DP23, vitrification after 60 seconds", "value": "reduced"},
      {"measurement": "improvement of the survival rate due to acetamide", "setting": "[3]; DAP213 versus DP23, vitrification within 15 seconds", "value": "not recognized"}
    ]},
    {"compound": "OC[C@H]1O[C@H](O[C@H]2O[C@H](CO)[C@@H](O)[C@H](O)[C@H]2O)[C@H](O)[C@@H](O)[C@@H]1O", "note": "[trehalose, D-(+)-Trehalose-dihydrate]", "values": [
      {"measurement": "vitrification by rapid cooling in liquid nitrogen", "setting": "[5]", "value": "vitrified"},
      {"measurement": "time required for the once vitrificated storage solution to be melted completely", "setting": "[4]", "value": "no reduction of melting time"}
    ]}
  ]
}
